Columns and labels:
[1] = target: T1, KRAS (G12D) (Homo sapiens, UniProt P01116, G12D); assay: KRAS (G12D) cellular degradation assay in AsPC-1 cells; assay type: cell-based; settings: 24 hours, antibody fluorescence (Odyssey CLX), DC50 half-maximal degradation concentration
T1 construct: in-cell western with KRAS G12D antibody after 24 h
Summary of the method: (§1)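 Read-outs were KRAS G12D immunofluorescence against β-actin after 24 h (DC50) and CellTiter Glo luminescence after 6 days (IC50). Compounds were titrated 1:3 from […] to 1.5 nM final on AsPC-1 cells at 37 °C, 5% CO2.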

[2] = test system: AsPC-1 cells; assay: AsPC-1 cell proliferation assay (CellTiter Glo); assay type: cell-based; settings: 6 days
Summary of the method: as §1

T1 sequence (P01116 1-188 isoform P01116-2 G12D): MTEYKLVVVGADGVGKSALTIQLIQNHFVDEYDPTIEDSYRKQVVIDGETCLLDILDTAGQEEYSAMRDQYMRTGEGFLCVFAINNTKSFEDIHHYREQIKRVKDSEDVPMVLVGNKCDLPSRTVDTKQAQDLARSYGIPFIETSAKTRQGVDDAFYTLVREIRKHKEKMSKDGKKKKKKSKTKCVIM

| SMILES | DC50 [1] | IC50 ([2]; Homo sapiens, ASPC1, 144 h) | IC50 [2] |
| --- | --- | --- | --- |
| Cc1ncsc1-c1ccc([C@H](CO)NC(=O)[C@@H]2C[C@@H](O)CN2C(=O)[C@H](C(C)C)n2cc(-c3ccc(COc4c(-c5c(C)c(F)cc6[nH]ncc56)c(C5CCC5)cc5c(N6C[C@@H]7C[C@H]6CN7)nc(OC6CCOCC6)nc45)cc3)nn2)cc1 [Example 94, (2S,4R)-1-((2S)-2-(4-(4-(((4-((1S,4S)-2,5-diazabicyclo[2.2.1]heptan-2-yl)-6-cyclobutyl-7-(6-fluoro-5-methyl-1H-indazol-4-yl)-2-((tetrahydro-2H-pyran-4-yl)oxy)quinazolin-8-yl)oxy)methyl)phenyl)-1H-1,2,3-triazol-1-yl)-3-methylbutanoyl)-4-hydroxy-N—((R)-2-hydroxy-1-(4-(4-methylthiazol-5-yl)phenyl)ethyl)pyrrolidine-2-carboxamide] | < 10 nM | < 10 nM | – |
| CO[C@@H](C)COc1nc(N(C)[C@H]2CCNC2)c2cc(C3CCC3)c(-c3c(C)c(F)cc4[nH]ncc34)c(OCc3ccc(-c4cn([C@H](C(=O)N5C[C@H](O)C[C@H]5C(=O)N[C@H](c5ccc(-c6scnc6C)cc5)C(C)O)C(C)C)nn4)cc3)c2n1 (stereo in doubt) [Example 142, (2S,4R)-1-((2S)-2-(4-(4-(((6-cyclobutyl-7-(6-fluoro-5-methyl-1H-indazol-4-yl)-2-((S)-2-methoxypropoxy)-4-(methyl((S)-pyrrolidin-3-yl)amino)quinazolin-8-yl)oxy)methyl)phenyl)-1H-1,2,3-triazol-1-yl)-3-methylbutanoyl)-4-hydroxy-N-((1R,2R)-2-hydroxy-1-(4-(4-methylthiazol-5-yl)phenyl)propyl)pyrrolidine-2-carboxamide] | < 10 nM | < 10 nM | – |
| CO[C@@H](C)COc1nc(N(C)[C@H]2CCNC2)c2cc(C3CC3)c(-c3c(C)c(F)cc4[nH]ncc34)c(OCc3ccc(-c4cn([C@H](C(=O)N5C[C@H](O)C[C@H]5C(=O)N[C@H](c5ccc(-c6scnc6C)cc5)[C@H](C)O)C(C)C)nn4)cc3)c2n1 [Example 167, (2S,4R)-1-((2S)-2-(4-(4-(((6-cyclopropyl-7-(6-fluoro-5-methyl-1H-indazol-4-yl)-2-((S)-2-methoxypropoxy)-4-(methyl((S)-pyrrolidin-3-yl)amino)quinazolin-8-yl)oxy)methyl)phenyl)-1H-1,2,3-triazol-1-yl)-3-methylbutanoyl)-4-hydroxy-N-((1R,2S)-2-hydroxy-1-(4-(4-methylthiazol-5-yl)phenyl)propyl)pyrrolidine-2-carboxamide] | < 10 nM | – | < 10 nM |
| CO[C@@H](C)COc1nc(N(C)[C@H]2CCNC2)c2cc(C3CCC3)c(-c3c(C)c(F)cc4[nH]ncc34)c(OCc3ccc(-c4cn([C@H](C(=O)N5C[C@H](O)C[C@H]5C(=O)N[C@H](c5ccc(-c6scnc6C)cc5)[C@H](C)O)C(C)C)nn4)cc3)c2n1 [Example 159, (2S,4R)-1-((2S)-2-(4-(4-(((6-cyclobutyl-7-(6-fluoro-5-methyl-1H-indazol-4-yl)-2-((S)-2-methoxypropoxy)-4-(methyl((S)-pyrrolidin-3-yl)amino)quinazolin-8-yl)oxy)methyl)phenyl)-1H-1,2,3-triazol-1-yl)-3-methylbutanoyl)-4-hydroxy-N-((1R,2S)-2-hydroxy-1-(4-(4-methylthiazol-5-yl)phenyl)propyl)pyrrolidine-2-carboxamide] | < 10 nM | – | < 10 nM |
| CO[C@@H](C)COc1nc(N2CCCNCC2)c2cc(C3CC3)c(-c3c(C)c(F)cc4[nH]ncc34)c(OCc3ccc(-c4cn([C@H](C(=O)N5C[C@H](O)C[C@H]5C(=O)N[C@@H](CO)c5ccc(-c6scnc6C)cc5)C(C)C)nn4)cc3)c2n1 [Example 179, (2S,4R)-1-((2S)-2-(4-(4-(((6-cyclopropyl-4-(1,4-diazepan-1-yl)-7-(6-fluoro-5-methyl-1H-indazol-4-yl)-2-((S)-2-methoxypropoxy)quinazolin-8-yl)oxy)methyl)phenyl)-1H-1,2,3-triazol-1-yl)-3-methylbutanoyl)-4-hydroxy-N—((R)-2-hydroxy-1-(4-(4-methylthiazol-5-yl)phenyl)ethyl)pyrrolidine-2-carboxamide] | < 10 nM | < 10 nM | – |
| CCn1nccc1-c1ccc([C@H](CO)NC(=O)[C@@H]2C[C@@H](O)CN2C(=O)[C@H](C(C)C)n2cc(-c3ccc(COc4c(-c5c(C)c(F)cc6[nH]ncc56)c(C5CC5)cc5c(N6C[C@@H]7C[C@H]6CN7)nc(OC6CCC(OC)C6)nc45)cc3)nn2)cc1 (stereo partly drawn) [Example 86, (2S,4R)-1-((2S)-2-(4-(4-(((4-((1S,4S)-2,5-diazabicyclo[2.2.1]heptan-2-yl)-6-cyclopropyl-7-(6-fluoro-5-methyl-1H-indazol-4-yl)-2-((3-methoxycyclopentyl)oxy)quinazolin-8-yl)oxy)methyl)phenyl)-1H-1,2,3-triazol-1-yl)-3-methylbutanoyl)-N—((R)-1-(4-(1-ethyl-1H-pyrazol-5-yl)phenyl)-2-hydroxyethyl)-4-hydroxypyrrolidine-2-carboxamide] | < 10 nM | < 10 nM | – |

Results, then the molecule that gave them:

| DC50 [1] | IC50 ([2]; Homo sapiens, ASPC1, 144 h) | IC50 [2] | SMILES |
| --- | --- | --- | --- |
| < 10 nM | < 10 nM | – | CCn1nccc1-c1ccc([C@H](CO)NC(=O)[C@@H]2C[C@@H](O)CN2C(=O)[C@H](C(C)C)n2cc(-c3ccc(COc4c(-c5c(C)c(F)cc6[nH]ncc56)c(C5CC5)cc5c(N6C[C@@H]7C[C@H]6CN7)nc(OC[C@H](C)OC)nc45)cc3C)nn2)cc1 [Example 44, (2S,4R)-1-((2S)-2-(4-(4-(((4-((1S,4S)-2,5-diazabicyclo[2.2.1]heptan-2-yl)-6-cyclopropyl-7-(6-fluoro-5-methyl-1H-indazol-4-yl)-2-((S)-2-methoxypropoxy)quinazolin-8-yl)oxy)methyl)-2-methylphenyl)-1H-1,2,3-triazol-1-yl)-3-methylbutanoyl)-N—((R)-1-(4-(1-ethyl-1H-pyrazol-5-yl)phenyl)-2-hydroxyethyl)-4-hydroxypyrrolidine-2-carboxamide] |
| < 10 nM | < 10 nM | – | CO[C@@H](C)COc1nc(N2C[C@@H]3C[C@H]2CN3)c2cc(C3CC3)c(-c3c(C)c(F)cc4[nH]ncc34)c(OCc3ccc(-c4cn([C@H](C(=O)N5C[C@H](O)C[C@H]5C(=O)N[C@H](C#Cc5cccc6ncsc56)CO)C(C)C)nn4)cc3)c2n1 [Example 92, (2S,4R)-1-((2S)-2-(4-(4-(((4-((1S,4S)-2,5-diazabicyclo[2.2.1]heptan-2-yl)-6-cyclopropyl-7-(6-fluoro-5-methyl-1H-indazol-4-yl)-2-((S)-2-methoxypropoxy)quinazolin-8-yl)oxy)methyl)phenyl)-1H-1,2,3-triazol-1-yl)-3-methylbutanoyl)-N—((R)-4-(benzo[d]thiazol-7-yl)-1-hydroxybut-3-yn-2-yl)-4-hydroxypyrrolidine-2-carboxamide] |
| < 10 nM | < 10 nM | – | CCn1nccc1-c1ccc([C@@H](NC(=O)[C@@H]2C[C@@H](O)CN2C(=O)[C@H](C(C)C)n2cc(-c3ccc(COc4c(-c5c(C)c(F)cc6[nH]ncc56)c(C5CC5)cc5c(N6C[C@@H]7C[C@H]6CN7)nc(OC[C@H](C)OC)nc45)cc3)nn2)[C@@H](O)C(C)C)cc1 [Example 95, (2S,4R)-1-((2S)-2-(4-(4-(((4-((1S,4S)-2,5-diazabicyclo[2.2.1]heptan-2-yl)-6-cyclopropyl-7-(6-fluoro-5-methyl-1H-indazol-4-yl)-2-((S)-2-methoxypropoxy)quinazolin-8-yl)oxy)methyl)phenyl)-1H-1,2,3-triazol-1-yl)-3-methylbutanoyl)-N-((1R,2S)-1-(4-(1-ethyl-1H-pyrazol-5-yl)phenyl)-2-hydroxy-3-methylbutyl)-4-hydroxypyrrolidine-2-carboxamide] |
| 10 to 100 nM | 10 to 100 nM | – | CO[C@@H](C)COc1nc(N2C[C@@H]3C[C@H]2CN3)c2cc(C3CC3)c(-c3c(C)c(F)cc4[nH]ncc34)c(OCc3ccc(-c4cn([C@H](C(=O)N5C[C@H](O)C[C@H]5C(=O)N[C@H](C#Cc5cc6scnc6s5)CO)C(C)C)nn4)cc3)c2n1 [Example 67, (2S,4R)-1-((2S)-2-(4-(4-(((4-((1S,4S)-2,5-diazabicyclo[2.2.1]heptan-2-yl)-6-cyclopropyl-7-(6-fluoro-5-methyl-1H-indazol-4-yl)-2-((S)-2-methoxypropoxy)quinazolin-8-yl)oxy)methyl)phenyl)-1H-1,2,3-triazol-1-yl)-3-methylbutanoyl)-4-hydroxy-N—((R)-1-hydroxy-4-(thieno[2,3-d]thiazol-5-yl)but-3-yn-2-yl)pyrrolidine-2-carboxamide] |
| < 10 nM | < 10 nM | – | CO[C@@H](C)COc1nc(N2C[C@@H]3C[C@H]2CN3)c2cc(C3CC3)c(-c3c(C)c(F)cc4[nH]ncc34)c(OCc3ccc(-c4cn([C@H](C(=O)N5C[C@H](O)C[C@H]5C(=O)N[C@H](C#Cc5cccc6nn(C)cc56)CO)C(C)C)nn4)cc3)c2n1 [Example 116, (2S,4R)-1-((2S)-2-(4-(4-(((4-((1S,4S)-2,5-diazabicyclo[2.2.1]heptan-2-yl)-6-cyclopropyl-7-(6-fluoro-5-methyl-1H-indazol-4-yl)-2-((S)-2-methoxypropoxy)quinazolin-8-yl)oxy)methyl)phenyl)-1H-1,2,3-triazol-1-yl)-3-methylbutanoyl)-4-hydroxy-N—((R)-1-hydroxy-4-(2-methyl-2H-indazol-4-yl)but-3-yn-2-yl)pyrrolidine-2-carboxamide] |
| < 10 nM | < 10 nM | – | CO[C@@H](C)COc1nc(N2C[C@@H]3C[C@H]2CN3)c2cc(C3CC3)c(-c3c(C)c(F)c(F)c4[nH]ncc34)c(OCc3ccc(-c4cn([C@H](C(=O)N5C[C@H](O)C[C@H]5C(=O)N[C@H](c5ccc(-c6scnc6C)cc5)[C@H](C)O)C(C)C)nn4)cc3)c2n1 [Example 90, (2S,4R)-1-((2S)-2-(4-(4-(((4-((1S,4S)-2,5-diazabicyclo[2.2.1]heptan-2-yl)-6-cyclopropyl-7-(6,7-difluoro-5-methyl-1H-indazol-4-yl)-2-((S)-2-methoxypropoxy)quinazolin-8-yl)oxy)methyl)phenyl)-1H-1,2,3-triazol-1-yl)-3-methylbutanoyl)-4-hydroxy-N-((1R,2S)-2-hydroxy-1-(4-(4-methylthiazol-5-yl)phenyl)propyl)pyrrolidine-2-carboxamide] |

From patent publication US20260295053A1, “COMPOUNDS FOR DEGRADATION AND INHIBITION OF KRAS (G12D) PROTEIN” (Shenzhen Ionova Life Science Co., Ltd., priority 2023, published 2026)
